# Measurements taken from US20250326639A1, “METHOD FOR PRODUCING HYDROGEN PEROXIDE” (ARKEMA FRANCE, priority 2022, published 2025).
# Columns and labels:
# [1] = Flash point, closed-cup apparatus, ASTM-D3278; format: physicochemical
# Description: The flash point may be determined using a closed-cup apparatus in accordance with the standard ASTM-D3278.
# [2] = Vapour pressure by ebulliometry, ASTM-E1719; format: physicochemical
# Description: The vapour pressure may be determined by ebulliometry in accordance with the standard ASTM-E1719.
# [3] = Solubility in water by coulometric Karl Fischer titration, ASTM-D6304; format: physicochemical
# Description: The solubility in water may be determined by coulometric Karl Fischer titration in accordance with the standard ASTM-D6304.
# [4] = Specific gravity by hydrometer, ASTM-D891; format: physicochemical
# Description: The specific gravity may be determined by means of a hydrometer in accordance with the standard ASTM-D891.
# [5] = Solubility of 2-ethyltetrahydroanthrahydroquinone in tested solvents (protocol of the patent); conditions: 2-THEAHQ dissolved in the tested lactone solvent; hydrogenation of parent quinone, cooled until precipitation, liquid chromatography
# Description: In the following examples, the solubilities of 2-ethyltetrahydroanthrahydroquinone (2-THEAHQ) were tested in different solvents in accordance with the protocols detailed below.
# For 2-ethyltetrahydroanthrahydroquinone, the solubilities were determined by dissolving a weighed amount of the parent quinone in the tested solvent. After the addition of a Pd-based catalyst to the solution, the mixture was hydrogenated until hydrogen absorption ceases, and then cooled until precipitation occurs.
# The samples were analysed by liquid chromatography. Reference mixtures were prepared for calibration.
SMILES,Flash point (° C.) [1] [°C],Vapour pressure (Pa) [2] [Pa],Solubility in water (mg/kg) [3],Specific gravity [4],Solubility of 2-THEAHQ [5] [mg/mL],Solubility in water [3] [mg/kg]
CC1CC(=O)O1 (stereo not drawn) [β-butyrolactone],74,212,158.9 10^3 mg/kg,1.076,,
O=C1CCO1 [β-propiolactone],70,418,,1.137,70,
O=C1CCCO1 [γ-butyrolactone],97,87,484.3 10^3 mg/kg,1.136,,
CCCCC1CCC(=O)O1 (stereo not drawn) [γ-octalactone],,,,,281,
CCCCCCCC1CCCC(=O)O1 (stereo not drawn) [δ-dodecalactone],168,0.05,,0.962,276,1113
